Starred links: 1 amine or outer side, 2 acyl side, 3 side chain; linkers in the order of their positions; H or OH if unused. Non-standard residues stand in square brackets, D forms with d. Residues, ends and D or L forms follow the SMILES beside them. Groups on a side chain read outwards from the residue. *: point of attachment. C20 diacid = O=C(O)CCCCCCCCCCCCCCCCCCC(=O)*; αMePhe(2-F) = C[C@](N)(Cc1ccccc1F)C(=O)O; γGlu = O=C(O)[C@H](CCC(=O)[*:2])N[*:1]; αMeL = CC(C)C[C@](C)(N)C(=O)O; AEEA = NCCOCCOCC(=O)O; Ac3c = NC1(C(=O)O)CC1; Aib = CC(C)(N)C(=O)O
How the values were obtained:
RIN-m5F cells = type: cell-based, rat; conditions: for Rel. A (Relative Activity) on RIN-m5F: relative to GLP-1(7-37)
Outline: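 cAMP production measured in RIN-m5F cells resuspended in HBSS; compounds incubated 60 min at room temperature, then detection reagent added for a further 60 min before read-out.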

3T3-L1 adipocytes = conditions: for Rel. A (Relative Activity) on 3T3-L1 adipocyte: relative to GIP
Outline: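 Mouse 3T3-L1 preadipocytes were differentiated with IBMX, dexamethasone and insulin for 5 days, then insulin plus 10 uM rosiglitazone for 3 days, then 10% FBS medium for 2–3 days. Mature adipocytes received 10-point, 3-fold compound dilutions for 60 min at room temperature. cAMP was read by kit detection reagent after a further 60 min, with concentration-effect curves fitted.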

[1] = tested on: human primary liver cells; type: cell-based; conditions: for Rel. A (Relative Activity) on human primary liver cells: relative to GCG
Outline: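 Human primary hepatocytes, thawed at 37° C and resuspended in HBSS, exposed to compound for 60 min at room temperature. Detection reagent then added for 60 min before cAMP readout.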

C57 BL/6J DIO mice = assay: In vivo pharmacodynamics in high-fat diet induced obesity (DIO) mice; design: species or system mouse; conditions: Mean±SEM; for Weight change: Table 6-1; for LDL-C / TC (total cholesterol) / TG (plasma triglycerides): Table 7-1
Source text: High-fat diet induced obesity (DIO) mice have characteristics such as obesity, elevated blood sugar, insulin resistance, and lipid abnormalities, all of which are very significant metabolic syndromes similar to a human body. The effects of the compounds of the present application on body weight, food intake, blood sugar, and lipids in C57 BL/6J DIO mice were studied.
Obesity was induced in mice by feeding with a high-fat diet (60 kcal % of calories from fat). […] After grouping, one animal was raised in each cage for one week, during which each of the animals was injected subcutaneously (S.C.) with a solvent (1×PBS, 5 ml/kg) to pre-adapt the experimental operation process.
After the preparation of animals, vehicle control or compounds were administered to groups of animals by subcutaneous injection, in which the compounds were dissolved in 1×PBS, the dosage was 5 ml/kg, and the administration operation was started at 9:00 am and conducted once every three days (Q3D) for 15 days. Throughout the entire experimental study, animal weight and food intake were measured daily before administration, and compared with initial weight and food intake of the same animal before administration to calculate a percentage change in animal weight (%) and cumulative food intake, so as to evaluate the impact of compounds on changes in body weight and food intake.
At the end point of the experiment (Day 15), the body weight of the mice was measured, and then fasting blood glucose was measured by taking blood from the tail tip of broken tail without anesthesia. After the blood collection, the animals were anesthetized with CO2 and euthanized. Then, blood was taken from the heart and plasma was separated by centrifugation. The plasma was used to measure total cholesterol (TC), low-density lipoprotein cholesterol (LDL-C), triglycerides (TG), and blood insulin content. The liver was separated for homogenization, and then centrifuged to obtain the supernatant for determining triglyceride content in the liver.
All results were expressed in Mean±SEM, and the results were analyzed by one-way ANOVA using GraphPad Prism 5 software, followed by Dunnett's post hoc test compared to the Vehicle control group. The difference at the p<0.05 level was considered statistically significant.

[2] = Rat pharmacokinetics (PK) study; type: in vivo; conditions: sc, male SD rats, subcutaneous 30 nmol/kg, plasma
Protocol: 7˜9 weeks old male SD rats (220-250 g, 3 rats/group) were subjected to subcutaneous injection of 30 nmol/kg compound. After administration, blood was collected through the jugular vein at time points 0.25, 2, 4, 8, 12, 16, 24, 48, 96, 120, and 144 hours. The blood was processed to obtain plasma samples and analyzed using LC-MS/MS. The blood concentration time curve was analyzed using Phoenix WinNonlin version 6.3 software (non compartment model), and PK parameters and half-life were calculated.

Human GIP R = target: T1, Human GIP R (Homo sapiens, UniProt P48546); assay: cAMP (HTRF) activity in CHO cells stably overexpressing GIP receptor; type: cell-based; conditions: for Human GIP R Rel. A (Relative Activity): EC50 of human GIP / EC50 of compound
T1 construct: expressed in transfected cells; host or cells: CHO
T1 sequence (P48546 22-466): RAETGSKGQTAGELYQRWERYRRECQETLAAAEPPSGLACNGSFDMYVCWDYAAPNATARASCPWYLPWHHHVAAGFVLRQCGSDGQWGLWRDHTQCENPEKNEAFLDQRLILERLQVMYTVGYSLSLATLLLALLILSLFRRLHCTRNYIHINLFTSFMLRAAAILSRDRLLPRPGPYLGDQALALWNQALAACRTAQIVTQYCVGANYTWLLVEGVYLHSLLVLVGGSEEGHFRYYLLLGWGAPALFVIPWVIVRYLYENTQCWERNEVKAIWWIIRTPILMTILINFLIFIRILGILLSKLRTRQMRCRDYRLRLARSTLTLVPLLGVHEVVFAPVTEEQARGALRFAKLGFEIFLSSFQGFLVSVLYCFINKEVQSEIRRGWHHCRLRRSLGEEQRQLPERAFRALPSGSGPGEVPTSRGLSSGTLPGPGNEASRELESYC
Outline: (§1)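 Cells in HBSS are exposed to compound for 60 min at room temperature, followed by 60 min with detection reagent. EC50 (nM) is taken from concentration-response curves.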

Human GCG R = target: T2, Human GCG R (Homo sapiens, UniProt P47871); assay: cAMP (HTRF) activity in HEK-293 cells stably overexpressing human GCG receptor; type: cell-based; conditions: EC50 of human GCG / EC50 of compound
T2 construct: expressed in transfected cells; host or cells: HEK-293
T2 sequence (P47871 26-477): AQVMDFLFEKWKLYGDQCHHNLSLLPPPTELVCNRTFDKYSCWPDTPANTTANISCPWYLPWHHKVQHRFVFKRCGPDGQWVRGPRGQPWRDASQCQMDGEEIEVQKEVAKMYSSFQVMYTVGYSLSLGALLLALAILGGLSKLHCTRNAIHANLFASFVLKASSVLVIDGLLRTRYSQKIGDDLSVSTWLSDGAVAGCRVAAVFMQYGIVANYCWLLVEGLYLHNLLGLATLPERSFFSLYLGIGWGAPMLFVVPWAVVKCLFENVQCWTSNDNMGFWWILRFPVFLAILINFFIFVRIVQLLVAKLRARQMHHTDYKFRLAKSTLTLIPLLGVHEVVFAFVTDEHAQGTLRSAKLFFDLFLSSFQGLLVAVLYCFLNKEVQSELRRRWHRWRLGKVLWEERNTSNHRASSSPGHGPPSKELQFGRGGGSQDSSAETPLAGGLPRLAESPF
Outline: as §1

Human GLP-1R = Human GLP-1R (Homo sapiens, UniProt P43220); assay: cAMP (HTRF) activity in HEK-293 cells stably overexpressing human GLP-1 receptor; type: cell-based; design: expressed in transfected cells; host or cells: HEK-293; conditions: for Human GLP-1R Rel. A (Relative Activity): EC50 of human GLP-1 (7-37) / EC50 of compound
Chain of Human GLP-1R (P43220 24-463): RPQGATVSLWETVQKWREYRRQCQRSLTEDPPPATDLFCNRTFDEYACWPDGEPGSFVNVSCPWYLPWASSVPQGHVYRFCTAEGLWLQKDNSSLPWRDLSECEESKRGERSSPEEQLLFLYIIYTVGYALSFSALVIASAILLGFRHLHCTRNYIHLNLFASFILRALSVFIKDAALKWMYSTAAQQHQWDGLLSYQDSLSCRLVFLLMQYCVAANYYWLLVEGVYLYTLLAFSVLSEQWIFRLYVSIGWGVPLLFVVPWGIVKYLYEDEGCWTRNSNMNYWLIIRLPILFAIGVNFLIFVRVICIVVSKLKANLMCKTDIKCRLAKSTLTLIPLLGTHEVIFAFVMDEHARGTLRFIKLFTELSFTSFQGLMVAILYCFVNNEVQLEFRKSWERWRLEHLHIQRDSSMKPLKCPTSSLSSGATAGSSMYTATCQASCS
Outline: as §1

[3] = stable transfected cell cAMP activity, at least 3 independent tests

| Structure (SMILES) | EC50 (RIN-m5F cells) [nM] | EC50 (3T3-L1 adipocytes) [nM] | EC50 [1] [nM] | Liver TG (C57 BL/6J DIO mice; Table 9-1, 3 nmol/kg, Day 15) [mg] | Human GIP R Rel. A (Relative Activity) (Human GIP R) [%] | Human GCG R Rel. A (Relative Activity) (Human GCG R) [%] | Rel. A (Relative Activity) on RIN-m5F (RIN-m5F cells) [%] | Rel. A (Relative Activity) on 3T3-L1 adipocyte (3T3-L1 adipocytes) [%] | Rel. A (Relative Activity) on human primary liver cells [1] [%] | Human GLP-1R Rel. A (Relative Activity) (Human GLP-1R) [%] | other results |
| --- | --- | --- | --- | --- | --- | --- | --- | --- | --- | --- | --- |
| CC[C@H](C)[C@H](NC(=O)[C@H](Cc1ccccc1)NC(=O)[C@H](C)NC(=O)C(C)(C)NC(=O)[C@H](CCC(N)=O)NC(=O)[C@H](C)NC(=O)[C@H](CCCCNC(=O)COCCOCCNC(=O)COCCOCCNC(=O)CC[C@H](NC(=O)CCCCCCCCCCCCCCCCCCC(=O)O)C(=O)O)NC(=O)[C@H](CCCCN)NC(=O)[C@H](CC(=O)O)NC(=O)[C@H](CC(C)C)NC(=O)[C@](C)(CC(C)C)NC(=O)[C@@H](NC(=O)[C@H](CO)NC(=O)[C@H](Cc1ccc(O)cc1)NC(=O)[C@H](CC(=O)O)NC(=O)[C@H](CO)NC(=O)[C@@H](NC(=O)[C@](C)(Cc1ccccc1)NC(=O)[C@@H](NC(=O)CNC(=O)[C@H](CCC(N)=O)NC(=O)C(C)(C)NC(=O)[C@@H](N)Cc1ccc(O)cc1)[C@@H](C)O)[C@@H](C)O)[C@@H](C)CC)C(=O)N[C@@H](CCC(=O)O)C(=O)N[C@@H](Cc1ccc(O)cc1)C(=O)N[C@@H](CC(C)C)C(=O)N[C@@H](CC(C)C)C(=O)N[C@@H](CCC(=O)O)C(=O)N[C@@H](CO)C(=O)N[C@@H](Cc1c[nH]cn1)C(=O)N1CCC[C@H]1C(=O)N[C@@H](CO)C(=O)N[C@@H](CO)C(=O)NCC(=O)N[C@@H](C)C(=O)N1CCC[C@H]1C(=O)N1CCC[C@H]1C(=O)NC1(C(=O)N[C@@H](CO)C(N)=O)CC1 [Compound 3] | 0.4 | 1.87 | 1.59 | 32.2 ± 2.99 | – | – | – | – | – | – | Weight change (C57 BL/6J DIO mice; 3 nmol/kg s.c. Q3D for 15 days): −21.2 ± 0.75%; Weight change (C57 BL/6J DIO mice; 10 nmol/kg s.c. Q3D for 15 days): −32.4 ± 2.94%; Weight change (C57 BL/6J DIO mice; 30 nmol/kg s.c. Q3D for 15 days): −51.6 ± 1.21%; LDL-C (C57 BL/6J DIO mice; 3 nmol/kg, Day 15): 0.52 ± 0.033 mM; TC (total cholesterol) (C57 BL/6J DIO mice; 3 nmol/kg, Day 15): 3.42 ± 0.214 mM; TG (plasma triglycerides) (C57 BL/6J DIO mice; 3 nmol/kg, Day 15): 0.87 ± 0.066 mM; LDL-C (C57 BL/6J DIO mice; 30 nmol/kg, Day 15): 0.37 ± 0.035 mM; TC (total cholesterol) (C57 BL/6J DIO mice; 30 nmol/kg, Day 15): 2.15 ± 0.079 mM; TG (plasma triglycerides) (C57 BL/6J DIO mice; 30 nmol/kg, Day 15): 0.55 ± 0.022 mM; Blood sugar (fasting blood glucose) (C57 BL/6J DIO mice; Table 8-1, 3 nmol/kg, Day 15): 107.5 ± 5.17 mg/dL; Insulin (blood) (C57 BL/6J DIO mice; Table 8-1, 3 nmol/kg, Day 15): 25.4 ± 16.90 mIU/L; AUC(0-t) [2]: 6.69 µM·h; Cmax [2]: 149 nM; Tmax [2]: 21.3 h; half-life [2]: 19.1 h |
| CC[C@H](C)[C@H](NC(=O)[C@H](Cc1ccccc1)NC(=O)[C@H](C)NC(=O)C(C)(C)NC(=O)[C@H](CCC(N)=O)NC(=O)[C@H](C)NC(=O)[C@H](CCCCNC(=O)COCCOCCNC(=O)COCCOCCNC(=O)CC[C@H](NC(=O)CCCCCCCCCCCCCCCCCCC(=O)O)C(=O)O)NC(=O)[C@H](CCCCN)NC(=O)[C@H](CC(=O)O)NC(=O)[C@H](CC(C)C)NC(=O)[C@H](Cc1ccccc1)NC(=O)[C@@H](NC(=O)[C@H](CO)NC(=O)[C@H](Cc1ccc(O)cc1)NC(=O)[C@H](CC(=O)O)NC(=O)[C@H](CO)NC(=O)[C@@H](NC(=O)[C@](C)(Cc1ccccc1F)NC(=O)[C@@H](NC(=O)CNC(=O)[C@H](CCC(N)=O)NC(=O)C(C)(C)NC(=O)[C@@H](N)Cc1ccc(O)cc1)[C@@H](C)O)[C@@H](C)O)[C@@H](C)CC)C(=O)N[C@@H](CCC(=O)O)C(=O)N[C@@H](Cc1ccccc1)C(=O)N[C@@H](CC(C)C)C(=O)N[C@@H](CC(C)C)C(=O)N[C@@H](CCC(=O)O)C(=O)N[C@@H](CO)C(=O)N[C@@H](Cc1c[nH]cn1)C(=O)N1CCC[C@H]1C(=O)N[C@@H](CO)C(=O)N[C@@H](CO)C(=O)NCC(=O)N[C@@H](C)C(=O)N1CCC[C@H]1C(=O)N1CCC[C@H]1C(=O)NC1(C(=O)N[C@@H](CO)C(N)=O)CC1 [Compound 10] (H-Y[Aib]QGT[αMePhe(2-F)]TSDYSIFLDKK([AEEA-AEEA-γGlu-C20 diacid])AQ[Aib]AFIEFLLESHPSSGAPP[Ac3c]S-NH2) | 0.274 | 6.16 | 5.19 | 81.6 ± 8.50 | 861.90 | 75.00 | 376.64 | 61.76 | 75.00 | 93.62 | EC50 (Human GIP R; [3]): 0.021 nM |
| CC[C@H](C)[C@H](NC(=O)[C@H](Cc1ccccc1)NC(=O)[C@H](C)NC(=O)C(C)(C)NC(=O)[C@H](CCC(N)=O)NC(=O)[C@H](C)NC(=O)[C@H](CCCCNC(=O)COCCOCCNC(=O)COCCOCCNC(=O)CC[C@H](NC(=O)CCCCCCCCCCCCCCCCCCC(=O)O)C(=O)O)NC(=O)[C@H](CCCCN)NC(=O)[C@H](CC(=O)O)NC(=O)[C@H](CC(C)C)NC(=O)[C@](C)(CC(C)C)NC(=O)[C@@H](NC(=O)[C@H](CO)NC(=O)[C@H](Cc1ccc(O)cc1)NC(=O)[C@H](CC(=O)O)NC(=O)[C@H](CO)NC(=O)[C@@H](NC(=O)[C@](C)(Cc1ccccc1F)NC(=O)[C@@H](NC(=O)CNC(=O)[C@H](CCC(N)=O)NC(=O)C(C)(C)NC(=O)[C@@H](N)Cc1ccc(O)cc1)[C@@H](C)O)[C@@H](C)O)[C@@H](C)CC)C(=O)N[C@@H](CCC(=O)O)C(=O)N[C@@H](Cc1ccccc1)C(=O)N[C@@H](CC(C)C)C(=O)N[C@@H](CC(C)C)C(=O)N[C@@H](CCC(=O)O)C(=O)N[C@@H](CO)C(=O)N[C@@H](Cc1c[nH]cn1)C(=O)N1CCC[C@H]1C(=O)N[C@@H](CO)C(=O)N[C@@H](CO)C(=O)NC(C)(C)C(=O)N[C@@H](Cc1c[nH]cn1)C(=O)N1CCC[C@H]1C(=O)N1CCC[C@H]1C(=O)NC1(C(=O)N[C@@H](CO)C(N)=O)CC1 [Compound 40] (H-Y[Aib]QGT[αMePhe(2-F)]TSDYSI[αMeL]LDKK([AEEA-AEEA-γGlu-C20 diacid])AQ[Aib]AFIEFLLESHPSS[Aib]HPP[Ac3c]S-NH2) | 0.16 | 2.56 | 1.07 | – | 150.83 | 34.13 | 645.00 | 148.46 | 364.33 | 275.00 | Liver TG (C57 BL/6J DIO mice; Table 9-2, 3 nmol/kg, Day 15): 42.1 ± 5.22 mg; EC50 (Human GLP-1R; [3]): 0.016 nM |
